Experimental data taken from paper PMC10485820 (European Journal of Pharmaceutical Sciences, 2023).
In brackets after ≈: the same amount, converted by molar mass.

Key:
glycosylated hemoglobin = test: Multidose exploratory clinical study of T2DM patients (CTR20182505): glycosylated hemoglobin; type: in vivo, human; details: after six doses of oral administration
[1] = Apparent permeability in Caco-2 monolayer cell lines; type: in vitro ADME; details: human, Caco-2
Method: (§1) All experiments were performed in triplicate and analyzed by high-performance liquid chromatography with tandem mass spectrometry (HPLC-MS/MS). The apparent permeability coefficient (Papp) of each compound under the corresponding concentration was calculated according to Eq. (1) and listed as follows:(1) Papp=dQ/dt×1/A×C0 Where Papp was the apparent permeability coefficient (cm/s × 10^−6), dQ/dt (pmol/second) was the rate at which the compound appears in the receiver side, C0 (nM) was the initial concentration of the compound in the donor side, and A (cm^2) represented the surface area of the cell monolayer.

Caco-2 monolayer cells = test: as above; type: in vitro ADME; details: from Papp A→B at 1, 5, 20 μM
Method: as §1

OATP1B1 = molecular target: T1, OATP1B1 (Homo sapiens, UniProt Q9Y6L6); test: Preclinical transporter substrate assessment (unpublished); type: in vitro ADME
T1 sequence (Q9Y6L6 1-691): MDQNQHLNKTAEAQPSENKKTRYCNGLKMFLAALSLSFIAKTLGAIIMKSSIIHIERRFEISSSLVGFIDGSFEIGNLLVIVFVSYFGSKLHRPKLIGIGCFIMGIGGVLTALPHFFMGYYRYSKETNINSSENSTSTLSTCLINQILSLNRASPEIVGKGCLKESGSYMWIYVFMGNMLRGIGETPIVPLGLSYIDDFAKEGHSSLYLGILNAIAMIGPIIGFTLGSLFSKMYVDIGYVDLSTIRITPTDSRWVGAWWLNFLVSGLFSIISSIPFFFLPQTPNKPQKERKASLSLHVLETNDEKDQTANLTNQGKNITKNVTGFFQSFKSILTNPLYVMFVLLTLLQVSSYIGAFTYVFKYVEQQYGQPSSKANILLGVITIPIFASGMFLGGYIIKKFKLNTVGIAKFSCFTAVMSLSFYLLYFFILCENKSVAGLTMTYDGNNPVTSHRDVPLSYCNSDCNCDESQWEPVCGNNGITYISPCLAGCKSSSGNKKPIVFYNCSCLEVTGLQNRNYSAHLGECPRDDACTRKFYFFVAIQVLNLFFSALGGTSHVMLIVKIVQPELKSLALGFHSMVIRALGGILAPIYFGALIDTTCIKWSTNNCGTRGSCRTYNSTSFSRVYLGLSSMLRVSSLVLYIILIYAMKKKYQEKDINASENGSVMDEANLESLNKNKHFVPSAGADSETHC

OAT1 = molecular target: T2, OAT1 (Homo sapiens, UniProt Q4U2R8); test: as above; type: in vitro ADME
T2 sequence (Q4U2R8 1-563): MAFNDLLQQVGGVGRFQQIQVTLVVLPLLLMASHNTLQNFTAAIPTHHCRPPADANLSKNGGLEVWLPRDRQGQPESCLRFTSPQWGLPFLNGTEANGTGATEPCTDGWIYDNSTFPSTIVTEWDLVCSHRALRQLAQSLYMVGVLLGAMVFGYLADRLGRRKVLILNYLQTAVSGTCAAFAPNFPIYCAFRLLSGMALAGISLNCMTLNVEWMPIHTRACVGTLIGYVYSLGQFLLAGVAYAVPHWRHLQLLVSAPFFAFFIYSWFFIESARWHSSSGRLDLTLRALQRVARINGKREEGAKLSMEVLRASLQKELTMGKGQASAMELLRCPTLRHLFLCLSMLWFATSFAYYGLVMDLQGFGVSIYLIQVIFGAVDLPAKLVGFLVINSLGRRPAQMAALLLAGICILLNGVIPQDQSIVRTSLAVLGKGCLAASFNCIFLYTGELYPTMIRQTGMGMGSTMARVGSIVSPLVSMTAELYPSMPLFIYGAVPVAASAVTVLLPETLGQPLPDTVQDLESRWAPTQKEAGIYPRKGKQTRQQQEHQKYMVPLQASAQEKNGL

in vitro = details: human
Method: Reactions were stopped by removing the plates from the incubator and mixing the incubation solution with 600 μL of ice-cold stop solution (acetonitrile) at the corresponding sampling time points.

[2] = Particle size distribution of the API (laser diffraction); type: physicochemical; details: dry method
Method: The determination was performed in a dry method with a Scirocco dry powder feeder, and the air was used as the dispersion agent ([Tari et al., 2015]). Meanwhile, the analysis results, d (0.1), d (0.5) and d (0.9) (defined as the diameter where 10%, 50% and 90% of population lies below this value), were directly output.

MATE2-K = MATE2-K (Homo sapiens, UniProt Q86VL8); test: Preclinical transporter substrate assessment (unpublished); type: in vitro ADME
[3] = Bioavailability in beagle dogs (unpublished); details: dog, in vivo, oral
[4] = Drug-drug interaction study of HSK7653 with metformin, multiple doses, Chinese healthy volunteers (CTR20191549): pharmacokinetics; details: human, in vivo, oral, Multiple dose (D1 35 mg; D8/D15/D22 25 mg) with metformin, fasted
[5] = Radioactivity recovery in feces after oral administration to rats (unpublished); type: in vivo

Sequence of MATE2-K (Q86VL8 1-566 isoform Q86VL8-3, species assumed): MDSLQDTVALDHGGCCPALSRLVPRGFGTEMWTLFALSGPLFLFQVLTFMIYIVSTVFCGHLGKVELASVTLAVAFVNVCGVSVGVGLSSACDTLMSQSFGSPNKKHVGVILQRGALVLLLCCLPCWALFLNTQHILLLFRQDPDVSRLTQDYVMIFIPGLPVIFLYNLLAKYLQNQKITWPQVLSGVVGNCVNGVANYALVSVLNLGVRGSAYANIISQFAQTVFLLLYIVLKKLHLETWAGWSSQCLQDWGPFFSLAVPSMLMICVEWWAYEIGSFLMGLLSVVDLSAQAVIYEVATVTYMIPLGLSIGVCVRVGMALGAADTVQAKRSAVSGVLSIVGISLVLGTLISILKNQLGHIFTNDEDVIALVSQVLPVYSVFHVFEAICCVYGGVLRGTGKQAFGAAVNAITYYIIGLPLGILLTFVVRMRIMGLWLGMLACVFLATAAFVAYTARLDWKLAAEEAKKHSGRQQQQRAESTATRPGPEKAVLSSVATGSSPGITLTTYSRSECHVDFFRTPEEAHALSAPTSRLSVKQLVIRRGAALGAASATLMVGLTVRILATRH
Excerpt for physchem: Based on the results of the two-stage biorelevant dissolution test (see Fig. 4 in 3.2 section), the precipitation parameters in the DLM were not assessed, and the critical supersaturation ratio (CSC) and precipitation rate constant (PRC) were set to the minimum values, respectively.
Furthermore, solubility parameters, representing the influence of pH and bile salts on the solubility, were estimated by Eq. (3) according to the experimental results.
Accordingly, it was unnecessary to evaluate the precipitation parameters for the development of DLM, which (CSC and PCR) were set to minimum values in DLM. Most importantly, the dissolution parameters, such as heff and DLMs, were estimated by Eq. (4) from the dissolution profile in 300 mL FaSSGF medium. Meanwhile, the disintegration lag time of the formulation was evaluated with the method of Weibull function, so that the dissolution profile could be captured by Eq. (4).

Structure (SMILES): CS(=O)(=O)n1cc2c(n1)CN([C@@H]1C[C@H](N)[C@@H](c3cc(F)ccc3F)O[C@@H]1C(F)(F)F)C2 [HSK7653]
- Glycosylated hemoglobin change (glycosylated hemoglobin): significantly reduced
- Papp A→B at 2 h, 1 μM ([1]; 1 μM, 2 h, 37 °C): 25.3 ×10⁻⁶ cm/s
- Papp A→B at 2 h, 5 μM ([1]; 5 μM, 2 h, 37 °C): 29.3 ×10⁻⁶ cm/s
- Papp A→B at 2 h, 20 μM ([1]; 20 μM, 2 h, 37 °C): 40.3 ×10⁻⁶ cm/s
- Papp at 2 h ([1]; average value of Papp at different incubation concentrations, apical pH: basolateral pH 7.4: 7.4, read-out: Caco-2 permeability, model input): 31.6 ×10⁻⁶ cm/s
- Permeability classification (Caco-2 monolayer cells): high-permeability compound
- Transporter substrate assessment (OATP1B1): not a common transport substrate
- Transporter substrate assessment (OAT1): not a common transport substrate
- half-life at 0.05 μM (in vitro; primary human plated hepatocytes): 12.2 days
- hepatocyte CLint at 0.05 μM (in vitro; primary plated hepatocytes (cryopreserved, 10 donors mixed)): 0.056 µL/min/1e6 cells
- d (0.1) [2]: 1.313 μm
- d (0.5) [2]: 3.288 μm
- d (0.9) [2]: 8.163 μm
- Transporter substrate assessment (MATE2-K): not a common transport substrate
- bioavailability [3]: 70.9%
- solubility (physchem): 7 µg/mL (≈ 15 µM)
- Cmax [4]: 533 ng/mL
- clearance ([4]; read-out: CL Obs (converted)): 9.17 mL/min
- Vd/F ([4]; read-out: VZ/F Obs): 1.08 L/kg
- Radioactivity recovered in feces [5]: approximately 62.1%
